From ChEMBL document CHEMBL5120772, “Discovery of ASP5878: Synthesis and structure-activity relationships of pyrimidine derivatives as pan-FGFRs inhibitors with improved metabolic stability and suppressed hERG channel inhibitory activity” (Bioorg Med Chem, 2022)
pIC50: −log10 of the molar value.

Experiments:
[1] = target: Voltage-gated inwardly rectifying potassium channel KCNH2 (Homo sapiens, UniProt Q12809); experiment: Inhibition of hERG channel expressed in CHO cells at -80 mV holding potential by Qpatch clamp method
[2] = Intrinsic clearance in human liver microsomes
[3] = Lipophilicity, logD of the compound in 1-octanol and phosphate buffer at pH 7.4 by LC-MS analysis
[4] = Plasma concentration in ICR mouse at 30 mg/kg, po measured after 6 hrs of administration by LC-MS/MS analysis; format: ADME, organism-based
[5] = Permeability of the compound in aqueous buffer at pH 6.5 incubated for 2 hrs by PAMPA based HPLC analysis
NIH3T3 = experiment: Cytotoxicity against mouse NIH/3T3 cells overexpressing FGFR3 S249C assessed as cell growth inhibition incubated for 5 days by CellTitre-Glo assay; settings: NIH3T3, 120 h
animal or person = settings: Mus musculus, Balb/c, NIH3T3, po, 6 h, read-out: INH
[6] = Ratio of drug concentration in brain to plasma (Kp,brain) in Sprague-Dawley rat at 1 mg/kg, po measured after 1 hr
[7] = Ratio of drug concentration in brain to plasma (Kp,brain) in Sprague-Dawley rat at 1 mg/kg, po measured after 4 hrs
[8] = Ratio of drug concentration in brain to plasma (Kp,brain) in Sprague-Dawley rat at 1 mg/kg, po measured after 24 hrs
[9] = target: Fibroblast growth factor receptor 3 (Homo sapiens, UniProt P22607); experiment: Inhibition of wild type N-terminal GST tagged FGFR3 (436 to 806 residues) (unknown origin) expressed in sf21 insect cells preincubated for 30 mins followed by substrate addition and measured after 30 mins in presence of ATP by off-chip mobility shift assay
[10] = AUCinfinity in Beagle dog at 0.1 mg/kg, iv measured up to 72 hrs by LC-MS/MS analysis; settings: in vivo
in vivo [11] = settings: beagle, dog, po, 100 mg/kg
[12] = dog, in vivo, po, 100 mg/kg, 72 h
[13] = Volume of distribution at steady state in Sprague-Dawley rat at 0.3 mg/kg, iv measured up to 24 hrs by LC-MS/MS analysis; settings: in vivo
in vivo [14] = settings: beagle, dog, po, 0.1 mg/kg
in vivo [15] = settings: beagle, dog, po, 1 mg/kg
[16] = dog, in vivo, po, 10 mg/kg, 72 h
in vivo [17] = settings: beagle, dog, po, 1 mg/kg; remark: listed apart in the source
in vivo [18] = settings: Sprague-Dawley, rat, po, 0.3 mg/kg
[19] = Volume of distribution at steady state in Beagle dog at 0.1 mg/kg, iv measured up to 72 hrs by LC-MS/MS analysis; settings: in vivo
in vivo [20] = settings: Sprague-Dawley, rat, po, 0.3 mg/kg; remark: listed apart in the source
in vivo [21] = settings: Sprague-Dawley, rat, po, 0.3 mg/kg; remark: listed apart in the source
[22] = AUCinfinity in Sprague-Dawley rat at 0.3 mg/kg, po measured upto 24 hrs by LC-MS/MS analysis; settings: in vivo
in vivo [23] = settings: beagle, dog, po, 0.1 mg/kg; remark: listed apart in the source
in vivo [24] = settings: Sprague-Dawley, rat, iv, 0.3 mg/kg
hERG [25] = target: T1, hERG (Homo sapiens, UniProt Q12809); experiment: Inhibition of hERG in HEK293 cells assessed as mean compensated suppression rate at 1 uM incubated for 13 mins by whole cell patch clamp assay relative to control; settings: HEK293 cells expressing hERG
hERG [26] = target: T1, hERG; experiment: Inhibition of hERG in HEK293 cells assessed as mean compensated suppression rate at 10 uM incubated for 13 mins by whole cell patch clamp assay relative to control; settings: HEK293 cells expressing hERG
in vivo [27] = settings: beagle, dog, po, 1 mg/kg; remark: listed apart in the source
[28] = AUCinfinity in Beagle dog at 0.1 mg/kg, po measured upto 72 hrs by LC-MS/MS analysis; settings: in vivo
in vivo [29] = settings: beagle, dog, po, 0.1 mg/kg; remark: listed apart in the source
[30] = Half-life in Beagle dog at 0.1 mg/kg, iv measured up to 72 hrs by LC-MS/MS analysis; settings: in vivo
[31] = dog, in vivo, po, 10 mg/kg, 72 h; remark: listed apart in the source
[32] = Half-life in Sprague-Dawley rat at 0.3 mg/kg, iv measured up to 24 hrs by LC-MS/MS analysis; settings: in vivo
hERG [33] = target: T1, hERG; experiment: Inhibition of hERG in HEK293 cells assessed as mean compensated suppression rate at 3 uM incubated for 13 mins by whole cell patch clamp assay relative to control; settings: HEK293 cells expressing hERG
in vivo [34] = settings: beagle, dog, iv, 0.1 mg/kg
in vivo [35] = settings: beagle, dog, po, 10 mg/kg
in vivo [36] = settings: beagle, dog, po, 100 mg/kg; remark: listed apart in the source
[37] = AUCinfinity in Sprague-Dawley rat at 0.3 mg/kg, iv measured up to 24 hrs by LC-MS/MS analysis; settings: in vivo

Voltage-gated inwardly rectifying potassium channel KCNH2, sequence (Q12809 whole entry): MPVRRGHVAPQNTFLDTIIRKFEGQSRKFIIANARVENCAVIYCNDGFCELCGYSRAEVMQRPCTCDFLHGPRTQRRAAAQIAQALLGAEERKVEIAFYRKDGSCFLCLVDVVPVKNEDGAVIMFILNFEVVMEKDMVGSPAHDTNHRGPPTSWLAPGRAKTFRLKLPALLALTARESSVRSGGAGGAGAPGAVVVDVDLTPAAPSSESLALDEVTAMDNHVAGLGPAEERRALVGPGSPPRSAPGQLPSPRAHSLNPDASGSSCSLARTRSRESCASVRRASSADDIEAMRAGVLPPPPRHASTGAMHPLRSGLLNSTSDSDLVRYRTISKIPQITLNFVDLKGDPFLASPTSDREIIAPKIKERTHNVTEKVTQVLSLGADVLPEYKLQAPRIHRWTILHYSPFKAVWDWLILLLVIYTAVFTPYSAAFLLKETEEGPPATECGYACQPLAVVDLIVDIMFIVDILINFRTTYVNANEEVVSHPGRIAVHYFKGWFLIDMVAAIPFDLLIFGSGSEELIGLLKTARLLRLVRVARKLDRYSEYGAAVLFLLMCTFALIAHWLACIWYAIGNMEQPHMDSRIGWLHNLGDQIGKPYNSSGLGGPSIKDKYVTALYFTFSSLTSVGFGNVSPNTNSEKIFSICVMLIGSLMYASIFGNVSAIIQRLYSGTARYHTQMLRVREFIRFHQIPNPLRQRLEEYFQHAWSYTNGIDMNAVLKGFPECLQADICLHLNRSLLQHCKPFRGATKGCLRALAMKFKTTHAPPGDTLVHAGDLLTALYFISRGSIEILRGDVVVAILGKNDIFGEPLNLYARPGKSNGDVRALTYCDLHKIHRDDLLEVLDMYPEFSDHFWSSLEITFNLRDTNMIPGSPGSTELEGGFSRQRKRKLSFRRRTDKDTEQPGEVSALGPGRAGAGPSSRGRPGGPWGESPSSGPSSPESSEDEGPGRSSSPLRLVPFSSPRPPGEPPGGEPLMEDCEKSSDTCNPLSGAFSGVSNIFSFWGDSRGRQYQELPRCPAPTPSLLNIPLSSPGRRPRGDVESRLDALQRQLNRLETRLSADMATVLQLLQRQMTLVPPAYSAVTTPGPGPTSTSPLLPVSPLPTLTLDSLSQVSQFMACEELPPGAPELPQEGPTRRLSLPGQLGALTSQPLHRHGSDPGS
T1 sequence (Q12809 whole entry): as above
Fibroblast growth factor receptor 3, sequence (P22607 whole entry, the tested form may be a part): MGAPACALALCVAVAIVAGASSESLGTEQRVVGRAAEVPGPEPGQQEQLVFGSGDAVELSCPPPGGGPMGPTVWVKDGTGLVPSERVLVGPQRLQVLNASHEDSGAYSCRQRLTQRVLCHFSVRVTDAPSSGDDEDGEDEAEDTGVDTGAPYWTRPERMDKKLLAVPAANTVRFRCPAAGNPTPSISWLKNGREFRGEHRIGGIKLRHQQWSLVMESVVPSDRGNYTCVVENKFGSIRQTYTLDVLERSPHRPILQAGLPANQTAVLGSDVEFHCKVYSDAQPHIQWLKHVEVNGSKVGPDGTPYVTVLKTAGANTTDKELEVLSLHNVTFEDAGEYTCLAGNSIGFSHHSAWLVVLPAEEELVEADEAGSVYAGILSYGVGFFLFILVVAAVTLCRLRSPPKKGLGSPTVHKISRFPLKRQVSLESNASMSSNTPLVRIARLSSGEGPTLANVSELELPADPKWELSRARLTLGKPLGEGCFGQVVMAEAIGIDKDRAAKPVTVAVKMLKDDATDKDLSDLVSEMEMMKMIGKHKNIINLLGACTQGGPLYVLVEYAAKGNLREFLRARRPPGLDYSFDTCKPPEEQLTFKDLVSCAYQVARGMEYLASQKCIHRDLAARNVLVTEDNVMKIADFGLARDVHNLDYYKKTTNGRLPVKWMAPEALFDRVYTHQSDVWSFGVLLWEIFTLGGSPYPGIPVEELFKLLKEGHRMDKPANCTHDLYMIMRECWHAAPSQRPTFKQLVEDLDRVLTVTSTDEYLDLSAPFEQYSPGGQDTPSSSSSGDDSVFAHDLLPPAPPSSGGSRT

Q: What does the source list for `COc1cc(Nc2ncc(CCc3c(F)c(OC)cc(OC)c3F)cn2)ccc1N1CCC(N2CCN(C)CC2)CC1`?
A: pIC50 [1]: 5.00; CLint scaled ([2]; liver microsomes): 171 mL/min/kg

Q: Which results are given for `COc1cc(Nc2ncc(OCc3c(F)c(OC)cc(OC)c3F)cn2)ccc1N1CCC(N2CCN(C)CC2)CC1`?
A: pIC50 [1]: < 5.52; logD ([3]; 1-octanol/phosphate buffer): 3.3; concentration at 6 h [4]: 2790 nM; Papp at 2 h [5]: 11.2 ×10⁻⁶ cm/s; pIC50 (NIH3T3): 7.89; CLint scaled ([2]; liver microsomes): 40 mL/min/kg; inhibition in vivo at 30 mg/kg (animal or person): 67%

Q: What does the source list for `COc1cc(Nc2ncc(OCc3c(F)c(OC)cc(OC)c3F)cn2)ccc1N1CCN(C)CC1`?
A: pIC50 [1]: < 5.52; logD ([3]; 1-octanol/phosphate buffer): 3; Papp at 2 h [5]: 16.2 ×10⁻⁶ cm/s; CLint scaled ([2]; liver microsomes): 39 mL/min/kg

Q: With `CCOc1cc(Nc2ncc(OCc3c(F)c(OC)cc(OC)c3F)cn2)ccc1N1CCC(N2CCN(C)CC2)CC1` as the compound, how does the pIC50 [1] read?
A: < 5.52

Q: And the logD ([3]; 1-octanol/phosphate buffer)?
A: 3.8

Q: And the Papp at 2 h [5]?
A: 16.8 ×10⁻⁶ cm/s

Q: What about the CLint scaled ([2]; liver microsomes) of the same compound?
A: < 23 mL/min/kg

Q: Which results are given for `COc1cc(Nc2ncc(CCc3c(F)c(OC)cc(OC)c3F)cn2)ccc1N1CCC(N(C)C2CCN(C)CC2)CC1.Cl.Cl.Cl.Cl`?
A: pIC50 [1]: < 6.00; logD ([3]; 1-octanol/phosphate buffer): 2.5; Papp at 2 h [5]: < 0.9 ×10⁻⁶ cm/s; pIC50 (NIH3T3): 7.62; CLint scaled ([2]; liver microsomes): 48 mL/min/kg

Q: For `COc1cc(OC)c(F)c(COc2cnc(Nc3cnc(N4CCC(N5CCN(C)CC5)CC4)nc3)nc2)c1F`, which CLint scaled ([2]; liver microsomes) is on record?
A: 39 mL/min/kg

Q: With `COc1cc(OC)c(F)c(COc2cnc(Nc3ccc(N4CCC(N5CCN(C)CC5)CC4)nc3)nc2)c1F` as the compound, how does the CLint scaled ([2]; liver microsomes) read?
A: 34 mL/min/kg

Q: Which Kp at 1 h [6] does the source give for `COc1cc(OC)c(F)c(COc2cnc(Nc3cnn(CCO)c3)n[14cH]2)c1F` here?
A: 0.15

Q: What about the Kp at 4 h [7] of the same compound?
A: 0.2

Q: What about the Kp at 24 h [8] of the same compound?
A: 0.69

Q: Which logD ([3]; 1-octanol/phosphate buffer) does the source give for `COc1cc(Nc2ncc(CCc3c(F)c(OC)cc(OC)c3F)cn2)ccc1N1CCN(C)CC1` here?
A: 3

Q: What about the Papp at 2 h [5] of the same compound?
A: > 30 ×10⁻⁶ cm/s

Q: And the pIC50 (NIH3T3)?
A: 7.74

Q: What about the CLint scaled ([2]; liver microsomes) of the same compound?
A: 101 mL/min/kg

Q: Which CLint scaled ([2]; liver microsomes) does the source give for `COc1cc(Nc2ncc(CCc3c(F)c(OC)cc(OC)c3F)cn2)ccc1N1CCN(C2CCN(C)CC2)CC1` here?
A: 51 mL/min/kg

Q: With `COc1cc(Nc2ncc(OCc3c(F)c(OC)cc(OC)c3F)cn2)cnc1N1CCC(N2CCN(C)CC2)CC1` as the compound, how does the CLint scaled ([2]; liver microsomes) read?
A: 26 mL/min/kg

Q: Which results are given for `COc1cc(OC)c(F)c(COc2cnc(Nc3cnn(CCNC4CCN(C)CC4)c3)nc2)c1F.Cl.Cl.Cl`?
A: pIC50 [1]: 4.08; logD ([3]; 1-octanol/phosphate buffer): 0.7; concentration at 6 h [4]: 50.2 nM; Papp at 2 h [5]: < 1.4 ×10⁻⁶ cm/s; pIC50 (NIH3T3): 7.49; CLint scaled ([2]; liver microsomes): < 23 mL/min/kg

Q: What does the source list for `COc1cc(OC)c(F)c(COc2cnc(Nc3cnn(CCN4CCNCC4)c3)nc2)c1F.Cl.Cl.Cl`?
A: pIC50 [1]: 4.05; logD ([3]; 1-octanol/phosphate buffer): 0.2; concentration at 6 h [4]: 305 nM; Papp at 2 h [5]: < 1.1 ×10⁻⁶ cm/s; pIC50 (NIH3T3): 7.89; CLint scaled ([2]; liver microsomes): < 23 mL/min/kg

Q: With `COc1cc(OC)c(F)c(COc2cnc(Nc3ccc(N4CCC(N5CCN(C)CC5)CC4)c(F)c3)nc2)c1F` as the compound, how does the pIC50 (NIH3T3) read?
A: 8.26

Q: What about the CLint scaled ([2]; liver microsomes) of the same compound?
A: 42 mL/min/kg

Q: What about the pIC50 [9] of the same compound?
A: > 9.00

Q: What does the source list for `COc1cc(OC)c(F)c(COc2cnc(Nc3ccc(N4CCC(N5CCN(C)CC5)CC4)c(C)c3)nc2)c1F`?
A: logD ([3]; 1-octanol/phosphate buffer): 4.1; Papp at 2 h [5]: 20.6 ×10⁻⁶ cm/s; pIC50 (NIH3T3): 7.70; CLint scaled ([2]; liver microsomes): 58 mL/min/kg

Q: What does the source list for `COc1cc(OC)c(F)c(COc2cnc(Nc3cnn(CCO)c3)nc2)c1F` [ASP-5878]?
A: AUC(0-inf) at 72 h [10]: 1260 ng·h/mL; AUC(0-t) at 72 h (in vivo [11]): 111000 ng·h/mL; pIC50 [1]: < 5.00; Cmax [12]: 9020 ng/mL; Vd at 24 h [13]: 0.671 L/kg; logD ([3]; octanol/water): 2.3; Cmax at 72 h (in vivo [14]): 119 ng/mL; concentration at 6 h [4]: 1570 nM; Tmax at 72 h (in vivo [15]): 1.3 h; Cmax [16]: 3540 ng/mL; Cmax at 72 h (in vivo [17]): 769 ng/mL; Tmax at 24 h (in vivo [18]): 1 h; Vd at 72 h [19]: 0.665 L/kg; Cmax at 24 h (in vivo [20]): 196 ng/mL; bioavailability at 24 h (in vivo [21]): 76.1%; AUC(0-inf) at 24 h [22]: 657 ng·h/mL; Papp at 2 h [5]: 13.3 ×10⁻⁶ cm/s; pIC50 (NIH3T3): 7.96; bioavailability at 72 h (in vivo [23]): 94.2%; CLint scaled ([2]; microsomes): < 23 mL/min/kg; clearance at 24 h (in vivo [24]): 5.82 mL/min/kg; inhibition at 13 min, 1 µM (hERG [25]): 7%; inhibition at 13 min, 10 µM (hERG [26]): 9.1%; AUC(0-t) at 72 h (in vivo [27]): 5710 ng·h/mL; AUC(0-inf) at 72 h [28]: 1180 ng·h/mL; Tmax at 72 h (in vivo [29]): 1 h; half-life at 72 h [30]: 9.6 h; AUC [31]: 39600 ng·h/mL; half-life at 24 h [32]: 1.7 h; inhibition at 13 min, 3 µM (hERG [33]): 9.1%; clearance at 72 h (in vivo [34]): 1.33 mL/min/kg; Tmax at 72 h (in vivo [35]): 3 h; Tmax at 72 h (in vivo [36]): 4.5 h; AUC(0-inf) at 24 h [37]: 864 ng·h/mL
